# Test results taken from patent US20230029259A1, “COMBINATION OF IAP INHIBITORS AND PARP OR MEK INHIBITORS OR OTHER CHEMOTHERAPEUTIC AGENTS” (Ascentage Pharma (Suzhou) Co., Ltd., priority 2019, published 2023).
# “And” between values parts separate entries of the source, which are not always exact repeats. Identical values can stand only once.
# Experiments:
# [1] = tested on: PA1170 pancreatic cancer patient-derived xenograft model; assay: Antitumor activity in PA1170 pancreatic cancer PDX model, confirmation study (Biological Example 3); format: in vivo, mice; settings: for RTV @ D29 / T/C (%) @ D29: day 29, Example 24 10 mg/kg IV, olaparib 50 mg/kg p.o. BID, trametinib 0.3 mg/kg p.o. QD, 4 weeks
# [2] = tested on: Panc-1 human pancreatic cancer xenograft model; settings: Panc-1 xenograft, day 27; abraxane 30 mg/kg i.v. QW×3w, gemcitabine 120 mg/kg i.p. QW×3w
# [3] = tested on: murine pancreatic cancer model mPA6115; assay: Antitumor activity in murine pancreatic cancer model mPA6115 (Biological Example 2)
# Text: C57BL/6, female, 6-8 weeks, weighing approximately 18-20 g, which were purchased from Shanghai Lingchang Biotechnology Co., Ltd (Shanghai, China).
# mPA6115 is a murine pancreatic cancer cell line carries a conditional mutant KRAS (KrasLSL-G12D/WT), a constitutive deletion of TP53 (p53−/−) and a Cre driven by the promoter of Pdx1 gene.
# Fresh tumor tissues from mice bearing established primary cancer tissues were harvested and cut into small pieces (approximately 2-3 mm in diameter). Tumor fragments, harvested from donor mice, were inoculated subcutaneously at the upper right dorsal flank into corresponding female C57BL/6 mice for tumor development. Treatments were started when the average tumor size reached approximately 150 mm^3. Randomization were performed based on “Matched distribution” method/“Stratified” method using the multi-task method (StudyDirector™ software, version 3.1.399.19)/randomized block design. Each group consisted of 6 tumor-bearing mice.
# [4] = tested on: pancreatic cancer patient derived xenograft (PDX) model PA1170; assay: Antitumor activity in subcutaneous pancreatic cancer PDX model PA1170 (Biological Example 1); format: in vivo, BALB/c nude mice; settings: day 28, Example 24 10 mg/kg i.v. QW, olaparib 50 mg/kg p.o. BID, trametinib 0.3 mg/kg p.o. QD, 4 ws
# Text: (§1) Balb/c nude, female, 4-6 weeks, weighing approximately 18-22 g, which were purchased from GemPharmatech Co., Ltd (Nanjing, Jiangsu).
# (§2) All of the PDX models were originally established from a surgically resected clinical sample (cancer type: pancreatic adenocarcinoma), and implanted in nude mice defined as passage 0 (P0). The next passage implanted from P0 tumor was defined as passage1 (P1), and so on during continual implantation in mice. The frozen tumor fragments were revived in NOD SCID mice, when the tumors were developed to suitable size, they were passaged to Balb/c nude mice. The P4-P7 tumors were used for the study.
# (§3) Each group consisted of 5 tumor-bearing mice.
# (§4) The protocol and any amendment(s) or procedures involving the care and use of animals in this study were reviewed and approved by the Institutional Animal Care and Use Committee (IACUC) of CrownBio prior to execution. During the study, the care and use of animals were conducted in accordance with the regulations of the Association for Assessment and Accreditation of Laboratory Animal Care (AAALAC). After tumor inoculation, the animals were checked daily for morbidity and mortality. During routine monitoring, the animals were checked for any effects of tumor growth and treatments on behavior such as mobility, food and water consumption, body weight gain/loss, eye/hair matting and any other abnormalities. Mortality and observed clinical signs were recorded for individual animals in detail.
# (§5) After randomization, tumor volumes were measured twice per week in two dimensions using a caliper, and the volume was expressed in mm^3 using the formula: […]
# (§6) where V is tumor volume, L is tumor length (the longest tumor dimension) and W is tumor width (perpendicular to L). Body weight was measured twice per week. Dosing as well as tumor and body weight measurements were conducted in a Laminar Flow Cabinet. The body weights and tumor volumes were measured by using StudyDirector™ software (version 3.1.399.19).
# (§7) Relative tumor volume (RTV) was calculated using the following formula: […]
# (§8) where V1 and Vt are the average tumor volumes on the first day of treatment (day 1) and the average tumor volumes on a certain time point (day t).
# (§9) Synergy score was calculated using the following formula described in Clarke R. Issues in experimental design and endpoint analysis in the study of experimental cytotoxic agents in vivo in breast cancer and other models[J]. Breast Cancer Research & Treatment, 1997, 46(2-3):255-278, which is incorporated by reference in its entirety:
# (§10) Synergy score=((A/C)×(B/C))/(AB/C),
# (§11) where A is RTV value of drug A; B is RTV value of drug B; C is RTV value of vehicle control. AB is RTV value of combination treatment with A and B. Synergy scores: >1 represents synergistic, =1 represents additive, <1 represents antagonistic (referring to Gould S E et al. Translational value of mouse models in oncology drug development. Nature medicine. 2015 21, 431-439).
# (§12) Standard NCI procedures were used to calculate tumor parameters. Percent tumor growth inhibition (% T/C) was calculated as the mean RTV of treated tumors (T) divided by the mean RTV of control tumors (C)×100%. The percentage T/C value is an indication of antitumor effectiveness: a value of T/C<42% is considered significant antitumor activity by the NCI. A T/C value <10% is considered to indicate highly significant antitumor activity, and is the level used by the NCI to justify a clinical trial if toxicity and certain other requirements are met (termed DN-2 level activity). A body weight loss nadir (mean of group) of greater than 20%, or greater than 20% of drug deaths are considered to indicate an excessively toxic dosage.
# (§13) The antitumor activity curves of test articles were plotted with the observation time on the X-axis, and corresponding tumor volume (geometric mean) on the Y-axis. A two-tailed t-test was employed to analyze the statistical significance of any difference between the treatment group and the control group. […]
# [5] = tested on: pancreatic cancer patient derived xenograft model PA6265; assay: Antitumor activity in subcutaneous pancreatic cancer PDX model PA6265 (Biological Example 1); format: in vivo, BALB/c nude mice; settings: olaparib 50 mg/kg p.o. BID, trametinib 0.3 mg/kg p.o. QD, 4 weeks; for T/C (%) @ D29: day 29 (text: day 28), Example 24 10 mg/kg i.v. QW; for RTV @ D29: day 29, Example 24 10 mg/kg i.v. QW
# Text: as §1, §2, §3, §4, §5, §6, §7, §8, §9, §10, §11, §12, §13
# [6] = mPA6115, day 21, Example 24 0.2 mg/kg i.v. BIW×3w, abraxane 15 mg/kg i.v. QW×3w, gemcitabine 120 mg/kg i.p. QW×3w
SMILES,RTV @ D29 [1],T/C (%) @ D29 [1],"Response @ D28 ([1]; responders/animals (CR, SD))",RTV @ D27 [2],T/C (%) @ D27 [2],"antitumor effect (in words) ([3]; mPA6115, day 21, single agent 0.2 mg/kg i.v. BIW×3w)","RTV @ D21 [3, 6]","T/C (%) @ D21 [3, 6] [%]","Response @ D21 ([3]; mPA6115, day 21, animals with PD or died / animals)",RTV @ D28 [4],T/C (%) @ D28 [4] [%],T/C (%) @ D28 ([4]; listed as trametinib) [%],T/C (%) @ D29 [5] [%],T/C (%) @ D29 ([5]; listed as trametinib) [%],RTV @ D29 [5],T/C (%) @ D29 ([1]; listed as trametinib) [%],T/C (%) @ D28 ([4]; listed as olaparib) [%],T/C (%) @ D29 ([5]; listed as olaparib) [%],T/C (%) @ D29 ([1]; listed as olaparib) [%]
CN[C@@H](C)C(=O)N[C@H]1CN(S(=O)(=O)c2cccc(S(=O)(=O)N3CC[C@H]4CC[C@@H](C(=O)NC(c5ccccc5)c5ccccc5)N4C(=O)[C@@H](NC(=O)[C@H](C)NC)C3)c2)CC[C@H]2CCC(C(=O)NC(c3ccccc3)c3ccccc3)N2C1=O (stereo partly drawn) [the compound of Example 24],4.29 ± 1.83,50.4% and 50.41%,1/5 SD,2.63 ± 0.51,66.1% and 66.08%,no antitumor effect,32.77 ± 10.36,144.28,"5/6 PD, 1/6 died",–,–,–,–,–,–,–,–,–,–
CC(=O)Nc1cccc(-n2c(=O)n(C3CC3)c(=O)c3c(Nc4ccc(I)cc4F)n(C)c(=O)c(C)c32)c1 [Trametinib],7.34 ± 1.49,86.25%,–,–,–,–,–,–,–,6.59 ± 0.41,68.57,69,76.01,76,4.31 ± 0.98,86.3,–,–,–
O=C(c1cc(Cc2n[nH]c(=O)c3ccccc23)ccc1F)N1CCN(C(=O)C2CC2)CC1 [Olaparib],1.90 ± 1.13,22.33%,–,–,–,–,–,–,–,3.09 ± 0.73,32.15,–,71.78,–,4.07 ± 0.51,–,32,72,22.3
